From patent US12115202B1, “Method of preventing cadmium-induced liver toxicity using a plant product derived from Achillea millefolium L” (KING FAISAL UNIVERSITY, priority 2024, dated 2024)

How the values were obtained:
[1] = Changes in body weight of rats in CdCl2-induced hepatic toxicity study; assay type: in vivo, rat; conditions: male Wistar rats, n=8 per group; AEO 250 mg/kg 2 hours before saline or CdCl2 6.5 mg/kg i.p., daily for 7 days; mean ± SD
Experimental: (§1) To study the hepatic protective activity of Achillea millefolium essential oil (AEO) on CdCl2-induced hepatic toxicity, male Wistar rats (weighing, 180 g-200 g) were purchased from the Experimental Animal Research Centre, King Saud University, Riyadh, KSA. The animals were randomly divided into four groups (n=8 per group). For Group I (the Control group), the animals were pre-administered with 0.9% NaCl (physiological saline), 2 hours before the injection of 0.9% NaCl (physiological saline) i.p., daily for 7 days. For Group II (the CdCl2 group), the animals were pre-administered with 0.9% NaCl (physiological saline) 2 hours before injection of 6.5 mg/kg CdCl2 i.p. daily for 7 days. For Group III (the AEO group), the animals were pre-administered with 250 mg/kg AEO 2 hours before the injection of 0.9% NaCl (physiological saline) i.p. daily for 7 days. For Group IV (the AEO+CdCl2 group), the animals were pre-administered with 250 mg/kg AEO 2 hours before the injection of 6.5 mg/kg CdCl2 i.p. daily for 7 days. Twenty-four hours after the last treatment, the animals were killed and the liver was quickly removed and weighed.

[2] = Determination of Cd concentration in liver tissue; assay type: in vivo, rat
Experimental: as §1
Cd concentration was measured using conventional methods. Liver tissue was weighed and dried in an oven for 4 hours at 250° C. […] Cd concentrations were determined by spectrophotometry at […]. The Cd concentrations are expressed as μg/g of wet liver tissue.

[3] = tested on: CdCl2-induced hepatic toxicity; test: Liver function test (serum enzymes, ELISA kits); assay type: in vivo, rat; conditions: rats, Cd vs control group, AEO 250 mg/kg + CdCl2 vs CdCl2 group
Experimental: as §1
The activities of alanine transaminase (ALT), aspartate aminotransferase (AST), alkaline phosphatase (ALP), lactate dehydrogenase (LDH) enzymes and γ-glutamyltransferase1 (γGTT1) were determined using ELISA kits.

[4] = tested on: CdCl2-induced hepatic toxicity; test: Determination of hepatic oxidative stress markers; assay type: in vivo, rat; conditions: rats, CdCl2 vs control, AEO 250 mg/kg + CdCl2 vs CdCl2 group
Experimental: as §1
(§2) Parts of the frozen liver samples (50 mg) were homogenized in 1 ml ice-cold phosphate buffer saline containing a protease/phosphatase inhibitor cocktail. The homogenates were centrifuged at 10,000×g for 15 minutes at 4° C. and the supernatants were isolated to new tubes. The tubes were kept at −20° C. until further biochemical analysis.
Lipid peroxidation was assessed according to the amount of malondialdehyde (MDA). The activities of catalase, superoxide dismutase (SOD) glutathione peroxidase (GSH-Px) and glutathione reductase (GSH-R) were estimated using kits, according to manufacturer protocol.

[5] = tested on: Nrf2/HO-1/NQO1; test: Hepatic Nrf2 pathway gene expression (qPCR); assay type: in vivo; conditions: rat liver, qPCR relative to β-actin, Cd vs control, AEO + CdCl2 vs CdCl2 group
Experimental: as §1, with “Twenty-four hours after the last treatment, the animals were killed and the liver was quickly removed and weighed.” left out
Gene expression for the Nrf2 pathway, including nuclear factor erythroid 2-related factor 2 (Nrf2), hemeoxygenase-1 (HO-1), NAD(P)H: quinone oxidoreductase 1 (NQO1) and Nuclear factor kappa B (NFκB) were quantified via real-time PCR (qPCR) consuming the primers' sequences, shown in Table 1, in agreement with the method described elsewhere. Briefly, RNA was isolated and purified using a Trizol reagent kit (Invitrogen, Carlsbad, CA, USA), then a reverse transcription polymerase chain reaction (RT-PCR) kit (TaKaRa, Kusatsu, Shiga, Japan) following the manufacturer's procedures. qPCR was applied using a SYBR ExScript RT-PCR kit, and quantification examinations were accomplished via an Opticon-2 Real-4 time PCR reactor (MJ Research, Capital Court, Reno, NV, USA). qPCR results were obtained using Step PE Applied Biosystems (Waltham, MA, USA) software. Relative gene expression data were calculated as mentioned earlier by the Livak and Schmittgen method (2-ΔΔCq2) and presented as a fold change. Target gene expressions were assessed and related to the reference gene (β-actin).

[6] = tested on: NFκB; test: Hepatic NFκB gene expression (qPCR); assay type: in vivo; conditions: rat liver, qPCR relative to β-actin; Cd vs control; AEO with Cd vs Cd alone group; FIG. 3D
Experimental: To study the hepatic protective activity of Achillea millefolium essential oil (AEO) on CdCl2-induced hepatic toxicity, male Wistar rats (weighing, 180 g-200 g) were purchased from the Experimental Animal Research Centre, King Saud University, Riyadh, KSA. The animals were randomly divided into four groups (n=8 per group). For Group I (the Control group), the animals were pre-administered with 0.9% NaCl (physiological saline), 2 hours before the injection of 0.9% NaCl (physiological saline) i.p., daily for 7 days. For Group II (the CdCl2 group), the animals were pre-administered with 0.9% NaCl (physiological saline) 2 hours before injection of 6.5 mg/kg CdCl2 i.p. daily for 7 days. […]
Gene expression for the Nrf2 pathway, including nuclear factor erythroid 2-related factor 2 (Nrf2), hemeoxygenase-1 (HO-1), NAD(P)H: quinone oxidoreductase 1 (NQO1) and Nuclear factor kappa B (NFκB) were quantified via real-time PCR (qPCR) consuming the primers' sequences, shown in Table 1, in agreement with the method described elsewhere. […] Relative gene expression data were calculated as mentioned earlier by the Livak and Schmittgen method (2-ΔΔCq2) and presented as a fold change. Target gene expressions were assessed and related to the reference gene (β-actin).

[7] = tested on: CdCl2-induced hepatic toxicity; test: Determination of liver inflammatory markers; assay type: in vivo, rat; conditions: rats, CdCl2 vs control, AEO 250 mg/kg + CdCl2 vs CdCl2 group
Experimental: as §1, §2
Inflammation markers including tumor necrosis factor alpha (TNF-α), interleukin 1β (IL-1β), intracellular adhesion molecule-1 (ICAM-1) and myeloperoxidase (MPO) were measured according to the manufacturer protocol of the Kit.

[Cl][Cd][Cl] [CdCl2]
Final weight [1]: 190.84 ± 4.41 | Cd concentration (μg/g liver tissue) ([2]; male Wistar rats, AEO 250 mg/kg 2 hours before saline or CdCl2 6.5 mg/kg i.p., daily for 7 days, liver 24 h after last treatment, mean ± SD): 0.74 ± 0.023 μg/g liver tissue | Concentration of Cd in hepatic tissue (change) ([2]; rats, CdCl2 vs control group, AEO prior to CdCl2 vs CdCl2 group, p<0.05): significantly increased | serum ALT level ([3]; FIG. 1A): increase | serum AST level ([3]; FIG. 1B): increase | serum ALP level ([3]; FIG. 1C): increase | serum LDH level ([3]; FIG. 1D): increase | serum γGTT1 level ([3]; FIG. 1E): increase | hepatic MDA level (lipid peroxidation) ([4]; FIG. 2A): augmented | hepatic GSH-Px activity ([4]; FIG. 2B): considerably declined | hepatic GSH-R activity ([4]; FIG. 2C): considerably declined | hepatic SOD activity ([4]; FIG. 2D): considerably declined | hepatic CAT (catalase) activity ([4]; FIG. 2E): considerably declined | Nrf2 mRNA expression level ([5]; FIG. 3A): decreased | HO-1 mRNA expression level ([5]; FIG. 3B): decreased | NQO1 mRNA expression level ([5]; FIG. 3C): decreased | NFκB mRNA expression level [6]: significantly augmented | TNF-α hepatic level ([7]; FIG. 4A): augmented | IL-1β hepatic level ([7]; FIG. 4B): augmented | MPO hepatic level ([7]; FIG. 4C): augmented | ICAM-1 hepatic level ([7]; FIG. 4D): augmented
